Measured values taken from US5503988A, “Process for producing a cholesterol-reduced substance” (priority 1992, dated 1996).
Where two headings read alike, the source gives them in different places.

Key:
[1] = test system: epicholesterol dehydrogenase from Mycobacterium sp. EPI-40; type: biochemical
Method: With 0.1 ml of a 1 mM epicholesterol micelle solution containing 0.33% Triton X-100 are mixed 0.3 ml of 20 mM Tris-HCl buffer (pH 8.0) containing 1 mM dithiothreitol, 0.1 ml of a 10 mM NAD solution, and 0.01 ml of 50 mM magnesium chloride. 0.05 ml of the enzyme solution is added to the mixture, and the mixture is allowed to stand at 37° C. for 2 hours. 0.05 ml of chloroform is added and sterol is extracted to stop the reaction.
Cholestenone produced in the reaction mixture is determined with high performance liquid chromatography. A quantitative determination is made using an ODS column (Inertsil ODS-2 column, 4.6×250 mm, product of GL Science Co.), using methanol as the mobile phase. […] The enzyme activity which produces 1 μmol of cholestenone per minute is defined as 1 unit.

[2] = test system: cholesterol oxidase from Botrytis cinerea CO-33; type: biochemical
Method: To 0.1 ml of 1 mM cholesterol micelle solution containing 0,33% Triton X-100 is added 0.3 ml of 20 mM phosphate/citrate buffer (pH 6.0), 0.05 ml of the enzyme solution is added to the mixture, and the reaction is carried out at 37° C. for 10 minutes. 0.05 ml of chloroform is added thereto to extract sterol, stopping the reaction.
Cholestenone in the reaction mixture is determined with a TLC/FID IATROSCAN (product to Diayatron Co.). […] The enzyme activity which produces 1 μmol of cholestenone per minute is defined as 1 unit.

Compound | residual activity (activity without inhibitor defined as 100%) ([1]; pH 8) | residual activity (activity without inhibitor defined as 100%) ([2]; pH 6) | residual activity (activity without inhibitor defined as 100%) ([1]; 1 mM inhibitor added, allowed to stand 2 hours at pH 8.0, 37° C.) | residual activity (activity without inhibitor defined as 100%) ([2]; 1 mM inhibitor added, reaction for 10 minutes at pH 6.0, 37° C.)
O=C(O)CI [iodoacetic acid] | 67% | 89% | – | –
O=S(=O)(O)c1cc[c]([Hg][Cl])cc1 [p-chloromercury phenylsulfonate] | – | – | 7% | 100%
O=C(O)CN(CCN(CC(=O)O)CC(=O)O)CC(=O)O [ethylenediamine tetraacetate] | 71% | 93% | – | –
